In general, Solubility refers to the dissolved amount per volume that the medium holds.

Bounds are passed on as bounds.

One data set in a line: Solubility in toluene. The note with it: 20 mg mixed with toluene (1 mL). The format is physicochemical. From the text:
B: Incompletely dissolved.
On to `CCCCCCCCOc1cc2c(ccc3c2sc2c4ccc5sc(OCCCCCCCC)cc5c4sc32)s1` [Compound 38], for which the Solubility entry is given as “A (Completely dissolved.)”.
Same read-out and setting: under `CCCCCCCCCCCCCCc1cc2ccsc2c2sc3c(sc4c5sccc5cc(CCCCCCCCCCCCCC)c43)c12` [Compound 39] stands “A (Completely dissolved.)”; under `CCCCCCCCC#Cc1cc2ccc3c(sc4c5ccc6cc(C#CCCCCCCCC)sc6c5sc34)c2s1` [Compound 29], “A (Completely dissolved.)”; under `CCCCCCCCCCCCc1cc2ccc3c(sc4c5ccc6cc(CCCCCCCCCCCC)sc6c5sc34)c2s1` [Compound 3], “A (Completely dissolved.)”.
Regarding `CCCCCCCCC#Cc1cc2c(ccc3c2sc2c4ccc5sc(C#CCCCCCCCC)cc5c4sc32)s1` [Compound 30], the Solubility result is “A (Completely dissolved.)”.
On the same count and under the same terms, under `CCCCCCCCc1cc2ccc3c(sc4c5ccc6cc(CCCCCCCC)sc6c5sc34)c2s1` [Compound 1] stands “A (Completely dissolved.)”.
For the compound `CCCCCCCCc1cc2c(ccc3c2sc2c4ccc5sc(CCCCCCCC)cc5c4sc32)s1` [Compound 2], the Solubility result is listed as “A (Completely dissolved.)”.
As for `CCCCCCCCc1cc2c(ccc3c2sc2c4ccc5sccc5c4sc32)s1` [Compound 44], the Solubility result is “A (Completely dissolved.)”.
With `CCCCCCCCc1cc2ccc3c(sc4c5ccc6ccsc6c5sc34)c2s1` [Compound 43], the Solubility entry is given as “A (Completely dissolved.)”.
As for `CCCCCCCCOc1cc2ccc3c(sc4c5ccc6cc(OCCCCCCCC)sc6c5sc34)c2s1` [Compound 37], the Solubility result is “A (Completely dissolved.)”.
`CCCCCCCCCCCCc1cc2c(ccc3c2sc2c4ccc5sc(CCCCCCCCCCCC)cc5c4sc32)s1` [Compound 4]: the Solubility entry is listed as “A (Completely dissolved.)”.
Same read-out and setting: under `CCCCCCCCCCCCCCc1cc2sccc2c2sc3c(sc4c5ccsc5cc(CCCCCCCCCCCCCC)c43)c12` [Compound 40] stands “A (Completely dissolved.)”.

The same data set, now with this note: organic solvent or mixture, thermodynamic from solid; 20 mg mixed with toluene (1 mL); read-out: Solubility.
As for `CCCC(C)n1ccc2c3sc4c5ccc6c(ccn6C(C)CCC)c5sc4c3ccc21` (centres unmarked) [compound 3, reference compound], the Solubility was less than 20 mg/mL.
With `Cn1ccc2c3sc4c5ccc6c(ccn6C)c5sc4c3ccc21` [compound 1, reference compound], the Solubility is less than 20 mg/mL.
Same read-out and setting: under `CC(C)CCCC(C)CCc1cc2ccc3c(sc4c5ccc6cc(CCC(C)CCCC(C)C)sc6c5sc34)c2s1` (centres unmarked) [Compound 5] stands greater than 20 mg/mL; under `CCc1cc2cc3c(cc2s1)sc1c2cc4cc(CC)sc4cc2sc31` [compound 2, reference compound], less than 20 mg/mL.
With `c1cc2cc3sc4c5cc6sccc6cc5sc4c3cc2s1` [compound 4, reference compound], the Solubility was less than 20 mg/mL.
